The target in one experiment is T1, mGluR5-PP2A complex (Mus musculus, UniProt Q3UVX5).
T1 construct: endogenous in cells; host or cells: mouse primary hippocampal neuronal cultures
The experiment is described as follows: Coimmunoprecipitation of PP2Ac with mGluR5 in primary neurons. The format is cell-based. Particulars: primary neuronal cultures, 1 mM BMAA. The protocol: Mouse hippocampal cell proteins were prepared with low-stringency lysis buffer [50 mM Hepes (pH 7.4), 10% (vol/vol) glycerol, 1.5 mM MgCl2, 5 mM NaF, 1 mM Na3VO4, 1 mM EDTA, 1 mM EGTA, 1% Nonidet P-40, 5 mM AEBSF, 10 μg/mL aprotinin, leupeptin, pepstatin] and were homogenized by several freeze-thaw cycles followed by water bath sonication. The homogenate was centrifuged at 14,000×g at 4° C. for 15 min. For transfection experiments with vector (DsRed) and with DsRed-PP2A catalytic subunit (PP2Ac), primary neurons were processed in a similar manner. The supernatants then were used for immunoprecipitation with mouse anti-PP2A (1D6; Millipore) followed by incubation with protein G-Sepharose (Thermo Scientific). The Western blots of immunoprecipitates were probed with rabbit anti-mGluR5 (Millipore) and rabbit anti-PP2Ac [R123d] (FIG. 55).

The test system of a further experiment is tau. Briefly: Tau phosphorylation (Western blots, immunofluorescence) in mouse hippocampal primary neurons. The format is cell-based. As for the experimental part: Mouse hippocampal neuronal cultures were prepared from d 18 embryos as previously described (1). Briefly, C57BL/6 pregnant female mice from Charles River Laboratories were killed by cervical dislocation. All studies were performed in accordance with the recommendations in the Guide for the Care and Use of Laboratory Animals of the National Institutes of Health (2). The protocol was approved by Institutional Animal Care and Use Committee of the New York Institute for Basic Research in Developmental Disabilities. All surgeries were performed under anesthesia, and all efforts were made to minimize suffering. Embryos were removed and placed in cold Hibernate A (BrainBits, LLC), and all the following steps were performed in ice-cold Hibernate A, under a stereoscopic (dissection) microscope placed in a laminar flow hood. Fetal brains were removed carefully, and forebrains were separated. The hippocampus, including the cortex surrounding the area of the hippocampus, was dissected and cut into small pieces using microsurgical scissors. The cut tissue was transferred with number 5 forceps to 15-mL tubes containing 0.1% trypsin in Versene (Invitrogen Life Technologies) and was incubated for 15 min at 37° C. followed by inactivation with 10% (vol/vol) FBS in Neurobasal complete medium (Neurobasal Medium supplemented with 2×B-27, 0.30% glutamine, 10% FBS, and penicillin/streptomycin, 0.1 mg/mL and 0.1 U/mL respectively). After 3 d, the cells were grown with Neurobasal medium supplemented with only 2×B-27. This procedure typically yields cultures that contain 70-75% neurons and […] supporting cells (3). The cultures were maintained at 37° C. in a humidified atmosphere containing 5% CO2 for 8 or 9 d before experimentation. Every 72 h, the medium was replaced with fresh medium. All medium components were purchased from Invitrogen. The neuronal transfection was performed using Lipofectamine LTX and Plus reagent at 5 d in vitro according to the manufacturer's instructions (Invitrogen). The cells were processed for immunofluorescent staining 3 d after transfection.
Protein was fractionated by 10% SDS/PAGE, transferred to PVDF membrane, and then blocked with 5% skim milk for 1 h at room temperature. The membrane was probed with anti-IPP2A (5G6, 1:1, 500) (7), anti-I2P2A (10E7, 1:1, 600) (7), anti-tau ˜92e; 1:5,000) (8), anti-tau (R134d; 1:5 000) (9), anti-tau pSer^262/^356 (12E8; 1:500) (10, anti-tau pSer^199, anti-tau pThr^205, anti-tau pThr^212, and pSer^396 (1:1,000) (Biosource), anti-GAPDH (1:2,000) (Santa Cruz Biotechnology), anti-PP2Ac (1:10 000) (BD Transduction Lab), anti pY^307-PP2A and anti-DML^309-PP2A (1:1,000) (Millipore), anti-GSK-3(α/β), anti-pS^9-GSK-3 β, anti-ERK1/2, anti-pT^202/Y^204-ERK1/2, anti-MEK1/2, anti-p9^17/221-MEK1/2, anti-CAMKII, anti-pT^286-CAMKII, anti-p70 S6 kinase, anti-pT^389-p70 S6 kinase, anti-SAPK/JNK, and anti-pT^183/Y^185-SAPK/JNK (1:1,000) (Cell Signaling Technology). The membrane then was incubated with HRP-conjugated secondary antibody (Jackson ImmunoResearch). The protein bands were detected with the enhanced chemiluminescence reagents (Thermo Scientific). Band intensity was measured by Multi-Gauge V3 software (Fuji Photo Film).
Primary hippocampal neuronal cultures grown on four-chamber glass slides were fixed in cold 4% (wt/vol) paraformaldehyde for 15 min and permeabilized in 0.1% Triton X-100 for 15 min followed by incubation in 5% goat serum to block the nonspecific staining for 1 h. The cells then were probed with 12E8 (1:200) overnight at 4° C. Alexa-488-conjugated anti-mouse secondary antibody (1:500) (Jackson Laboratory) was used for fluorescent labeling. The cells on slides were rinsed with PBS, mounted with Fluorogel (Electron Microscopy Sciences) and examined under laser confocal microscope (Nikon Eclipse 90i). […]

The mark [1] stands for this setting: BMAA 1 mM vs controls, Western blots, P<0.01.
Where [2] appears, read: BMAA 1 mM vs controls, Western blots, P<0.05.

T1 sequence (Q3UVX5 19-1203, one chain of several): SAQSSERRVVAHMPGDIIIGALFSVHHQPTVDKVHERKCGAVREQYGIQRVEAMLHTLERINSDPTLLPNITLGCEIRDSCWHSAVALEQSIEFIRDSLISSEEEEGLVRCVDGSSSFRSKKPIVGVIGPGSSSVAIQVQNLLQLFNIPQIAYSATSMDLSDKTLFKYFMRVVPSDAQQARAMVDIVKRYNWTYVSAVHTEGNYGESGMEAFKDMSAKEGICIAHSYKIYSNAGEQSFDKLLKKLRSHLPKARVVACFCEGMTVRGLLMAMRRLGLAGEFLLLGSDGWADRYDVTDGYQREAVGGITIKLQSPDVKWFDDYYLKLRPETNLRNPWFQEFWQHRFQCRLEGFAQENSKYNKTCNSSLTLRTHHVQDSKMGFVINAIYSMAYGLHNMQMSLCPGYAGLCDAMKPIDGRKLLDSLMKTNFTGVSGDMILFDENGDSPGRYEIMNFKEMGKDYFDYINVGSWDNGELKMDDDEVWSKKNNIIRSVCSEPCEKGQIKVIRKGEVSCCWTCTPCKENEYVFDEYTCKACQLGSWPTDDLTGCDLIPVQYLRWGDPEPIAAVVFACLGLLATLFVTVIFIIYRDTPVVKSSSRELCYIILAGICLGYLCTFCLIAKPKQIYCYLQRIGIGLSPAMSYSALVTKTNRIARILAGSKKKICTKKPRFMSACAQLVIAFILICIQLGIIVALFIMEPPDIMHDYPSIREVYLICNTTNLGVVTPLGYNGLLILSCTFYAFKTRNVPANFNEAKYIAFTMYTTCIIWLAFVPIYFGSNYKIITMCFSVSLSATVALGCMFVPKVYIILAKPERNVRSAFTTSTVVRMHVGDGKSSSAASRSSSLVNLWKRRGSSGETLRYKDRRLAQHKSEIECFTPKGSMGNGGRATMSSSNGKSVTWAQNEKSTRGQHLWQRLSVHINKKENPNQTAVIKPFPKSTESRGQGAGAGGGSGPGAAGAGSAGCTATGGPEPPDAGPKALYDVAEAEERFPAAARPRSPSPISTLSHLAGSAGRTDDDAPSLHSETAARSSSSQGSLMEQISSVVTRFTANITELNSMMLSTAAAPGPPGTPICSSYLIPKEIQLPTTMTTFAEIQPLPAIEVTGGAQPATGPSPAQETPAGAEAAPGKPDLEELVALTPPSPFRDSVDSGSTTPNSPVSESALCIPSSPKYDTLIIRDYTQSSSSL

For the compound `CNC[C@H](N)C(=O)O` [BMAA, β-N-methylamino-L-alanine], the “association of PP2Ac with mGluR5” value on mGluR5-PP2A complex is “led to the dissociation”. In the experiment on tau (BMAA 1 mM vs controls, Western blots), the “hyperphosphorylation of tau at Ser396” value is “not at Ser^396”. Besides, in the experiment on tau (setting [1]), the “hyperphosphorylation of tau at Ser262/356 (12E8 site)” value is listed as “significantly increased” and the “hyperphosphorylation of tau at Thr205” value is reported as “significantly increased”. In the experiment with tau (setting [2]), the “hyperphosphorylation of tau at Ser199” value was “significantly increased” and the “hyperphosphorylation of tau at Thr212” value is reported as “significantly increased”. Further, the “expression of tau phosphorylated at Ser262/356” value in the experiment with tau (immunohistofluorescent analysis, 12E8 staining, BMAA-treated primary neurons) was “increased”.

The values above are taken from patent US10335400B2, “Treatment of tauopathies with mGluR5 antagonists” (priority 2014, dated 2019).
